Measured values taken from PMC9440883, “A new source of bacterial myrosinase isolated from endophytic Bacillus sp. NGB-B10, and its relevance in biological control activity” (World Journal of Microbiology & Biotechnology, 2022).

Test system: myrosinase (bglA, 6-phospho-β-glucosidase, GH1)
Assay: initial rates, Lineweaver-Burk plot
Format: biochemical, Bacillus sp. NGB-B10
Conditions: 0.05 M phosphate buffer pH 7.0; 1-20 mM sinigrin; partially purified enzyme

Km: 2500 µM
SMILES: C=CC/C(=N/OS(=O)(=O)O)S[C@@H]1O[C@H](CO)[C@@H](O)[C@H](O)[C@H]1O [sinigrin]
